This is an account of results in patent US4898936A, “2-deoxyuridines and riboside precursors” (priority 1985, dated 1990).

For data set [1] the following is noted: cited from earlier work; for Toxicity value (B): Administration amount of test compound at which weight increase of test animal is inhibited by 50% compared with that of control group: oral, once a day for 7 consecutive days, mice.
The test system of data set [2] is Sarcoma 180. The settings on record: from Table 1; cited from earlier work.
Data set [3] deals with Sarcoma 180. Nature of the data set: Comparison of activities of antitumor agents on Sarcoma 180 in mice (50% tumor regression). In kind it is in vivo. The settings on record: Mus musculus. The text has this: In comparison with the activities of other antitumor agents on Sarcoma 180 in mice, the following results were obtained: […]
Data set [4] relates to Sarcoma 180. The settings on record: cited from earlier work; for Antitumor activity value (A): Administration amount of test compound, at which tumor enhancement is inhibited by 50% compared with that of control group: oral, once a day for 7 consecutive days, tumor weight on tenth day, Sarcoma 180, mice, 14400 min.
The format of data set [5] is in vivo. The settings on record: lethal dose, administered orally; + Test animals alive at indicated dose. On the procedure:
(§1) The effective dose and the lethal dose has been determined as follows:
The dosage is administered

The subject of data set [6] is Sarcoma 180. It is filed as in vivo, mouse (male ICR/JCL-strain). The settings on record: toxicity value (B) / antitumor activity value (A); oral, mice. On the procedure:
(c) Calculation of therapeutic index
By the use of the antitumor activity value (hereinafter referred to as A) and the toxicity value (hereinafter referred to as B) of each compound, which were obtained in the above items (a) and (b), respectively, therapeutic index (hereinafer referred to as C) was calculated in accordance with the following equation: […]
Pharmacological tests-(Continued) [formula]

Data set [7] relates to Sarcoma 180. Nature of the data set: Antitumor activity in mice against Sarcoma 180 (effective dose). The settings on record: Sarcoma 180, mice; for ED50: Mus musculus, po, effective dose, administered orally. In kind it is in vivo. On the procedure:
as §1
^+ Test animals alive at indicated dose. The dosage is administered

A further data set can be described thus: Hygroscopicity. It is filed as physicochemical. The settings on record: beta-anomer.

SMILES strings stand for the structures. Several values for one entry are separate records, joined by “and”; a condition that tells them apart may be missing. Identical values can stand only once.

What is called ED50 is the midpoint of the dose-response relation. Low values mean an effect at a small dose, high ones a need for a large dose. In the case of `O=c1[nH]c(=O)n([C@H]2C[C@H](OCc3ccccc3)[C@@H](CO)O2)cc1C(F)(F)F` [3'-O-Benzyl-2'-Deoxy-5-Trifluoromethyluridine], in data set [1] (from Table 1), the “toxicity compared with F3 TdR and FudR (in words)” value was “equal or superior to F3 TdR and FudR in toxicity”. For the same molecule, the “Toxicity value (B): Administration amount of test compound at which weight increase of test animal is inhibited by 50% compared with that of control group” value in data set [1] was 32 mg/kg/day. The “usefulness when compared in therapeutic index (in words)” value in the data set with Sarcoma 180 [2] is listed as “especially useful”. In the data set on Sarcoma 180 [3], the 50% effective dose (ED50) was found to be 14 mg/kg. Besides, the “antitumor activity compared with F3 TdR and FudR (in words)” value with Sarcoma 180 [4] (from Table 1) is reported as “far superior to them in antitumor activity”. In the data set with Sarcoma 180 [4], the “Antitumor activity value (A): Administration amount of test compound, at which tumor enhancement is inhibited by 50% compared with that of control group” value is 17 mg/kg/day. Moreover, the LD10 in data set [5] is on record as 80 mg/kg. Further, the “Therapeutic Index (C) = (B)/(A)” value in the data set on Sarcoma 180 [6] came to 1.88. For the same molecule, in the data set on Sarcoma 180 [7], it took a dose of 14 mg/kg to reach the 50% effect level (ED50) and the “antitumor activity in mice against Sarcoma 180 (in words)” value is “show antitumor activity in mice against Sarcoma 180”.

Regarding `Nc1nc(=O)n([C@H]2C[C@H](O)[C@@H](CO)O2)cc1C(F)(F)F` [CF3 dC, 5-Trifluoromethyl-2deoxycytidine], the ED50 with Sarcoma 180 [3] lay in the range of 60 to 80 mg/kg.

`O=c1[nH]c(=O)n([C@H]2C[C@H](OCc3ccccc3)[C@@H](CO)O2)cc1F` [3'-O-Benzyl-2'-deoxy-5-fluorouridine, 3'-O-Benzyl-2'-Deoxy-5-Fluorouridine]: the “Toxicity value (B): Administration amount of test compound at which weight increase of test animal is inhibited by 50% compared with that of control group” value in data set [1] was 35 mg/kg/day. In addition, in the data set with Sarcoma 180 [2], the “usefulness when compared in therapeutic index (in words)” value was “especially useful”. In addition, the hygroscopicity entry in “Hygroscopicity” is on record as “not hygroscopic”. In the data set with Sarcoma 180 [4], the “Antitumor activity value (A): Administration amount of test compound, at which tumor enhancement is inhibited by 50% compared with that of control group” value is 17 mg/kg/day. For the same molecule, the “Therapeutic Index (C) = (B)/(A)” value with Sarcoma 180 [6] is listed as 2.06. In the data set on Sarcoma 180 [7], the “antitumor activity in mice against Sarcoma 180 (in words)” value is “show antitumor activity in mice against Sarcoma 180”.

On to `O=c1[nH]c(=O)n([C@H]2C[C@H](O)[C@@H](CO)O2)cc1F` [FudR, 2'-deoxy-5-fluorouridine, reference compound], for which the “Toxicity value (B): Administration amount of test compound at which weight increase of test animal is inhibited by 50% compared with that of control group” value in data set [1] was 71 mg/kg/day. In the data set with Sarcoma 180 [4], the “Antitumor activity value (A): Administration amount of test compound, at which tumor enhancement is inhibited by 50% compared with that of control group” value is 93 mg/kg/day. Besides, the “Therapeutic Index (C) = (B)/(A)” value in the data set with Sarcoma 180 [6] is 0.76.

On to `O=c1[nH]c(=O)n(C2CCCO2)cc1F` (stereo not shown) [Ftorafur], for which the ED50 with Sarcoma 180 [3] was found to be 120 mg/kg.

`O=c1[nH]c(=O)n([C@H]2C[C@H](O)[C@@H](CO)O2)cc1C(F)(F)F` [F3 TdR, 2'-deoxy-5-trifluoromethyluridine, reference compound]: in data set [1], the “Toxicity value (B): Administration amount of test compound at which weight increase of test animal is inhibited by 50% compared with that of control group” value is 49 mg/kg/day and 40 mg/kg/day. Also, the ED50 is 60 to 80 mg/kg in the data set on Sarcoma 180 [3] and 75 mg/kg in the data set on Sarcoma 180 [7]. Moreover, the “Antitumor activity value (A): Administration amount of test compound, at which tumor enhancement is inhibited by 50% compared with that of control group” value with Sarcoma 180 [4] is 68 mg/kg/day and 58 mg/kg/day.
